The subject of this test is L1210 leukemia ip in BDF1 mice, survival T/C. Kind of test: NCI In Vivo Anticancer Drug Screen. Data for tumor model L1210 Leukemia (intraperitoneal) in B6D2F1 (BDF1) mice. Particulars: endpoint: mean survival time, higher = longer survival. In outline: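 Value reflects the ratio of survival in compound-treated mice to survival in vehicle-treated controls, with both groups carrying the same transplanted tumor.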

The mark [1] stands for this setting: dose: 100.0 mg/kg/injection, schedule: Q04DX002 (ip), vehicle: saline.
Where [2] appears, read: dose: 100.0 mg/kg/injection, schedule: Q01DX009 (ip), vehicle: Klucel (hydroxypropylcellulose) (HPC).
The mark [3] stands for this setting: dose: 100.0 mg/kg/injection, schedule: Q04DX003 (ip), vehicle: Klucel (hydroxypropylcellulose) (HPC).
The mark [4] stands for this setting: dose: 200.0 mg/kg/injection, schedule: Q01DX009 (ip), vehicle: Klucel (hydroxypropylcellulose) (HPC).
The mark [5] stands for this setting: dose: 200.0 mg/kg/injection, schedule: Q04DX003 (ip), vehicle: Klucel (hydroxypropylcellulose) (HPC).
[6] abbreviates: dose: 400.0 mg/kg/injection, schedule: Q01DX009 (ip), vehicle: Klucel (hydroxypropylcellulose) (HPC).
Setting [7] is: dose: 400.0 mg/kg/injection, schedule: Q04DX003 (ip), vehicle: Klucel (hydroxypropylcellulose) (HPC).
[8] abbreviates: dose: 300.0 mg/kg/injection, schedule: Q01DX001 (ip), vehicle: saline.
Setting [9] is: dose: 100.0 mg/kg/injection, schedule: Q04DX003 (ip), vehicle: saline with Tween-80.
Setting [10] is: dose: 50.0 mg/kg/injection, schedule: Q01DX001 (ip), vehicle: saline.
The mark [11] stands for this setting: dose: 100.0 mg/kg/injection, schedule: Q01DX001 (ip), vehicle: saline.
[12] abbreviates: dose: 200.0 mg/kg/injection, schedule: Q01DX001 (ip), vehicle: saline.

This is an account of results in PubChem BioAssay AID248 (DTP/NCI, 2004).

Structures are written as SMILES. “And” between values parts separate entries of the source, which are not always exact repeats. Equal entries are not always repeated. Toxic doses and inconclusive results are not listed.

As for `C/C(C(=O)O)=C(\C)C(=O)O`, the T/C reads like this: (dose: 100.0 mg/kg/injection, schedule: Q01DX009 (ip), vehicle: saline) 104 % of control; under setting [1], 108 % of control; (dose: 200.0 mg/kg/injection, schedule: Q01DX009 (ip), vehicle: saline) 97 % of control; (dose: 200.0 mg/kg/injection, schedule: Q04DX002 (ip), vehicle: saline) 104 % of control; (dose: 400.0 mg/kg/injection, schedule: Q01DX009 (ip), vehicle: saline) 108 % of control; (dose: 400.0 mg/kg/injection, schedule: Q04DX002 (ip), vehicle: saline) 101 % of control.

With `C=CCN(CC=C)c1ccccc1`, the T/C reads like this: under setting [2], 93 % of control; under setting [3], 108 % of control; under setting [4], 107 % of control; under setting [5], 101 % of control; under setting [6], 112 % of control; under setting [7], 101 % of control.

As to `COc1ccc(-n2c(=O)c(N=Nc3ccccc3C)c(O)n(-c3ccc(Br)cc3)c2=S)cc1`, the T/C by setting is: (dose: 37.5 mg/kg/injection, schedule: Q01DX001 (ip), vehicle: Klucel (hydroxypropylcellulose) (HPC)) 94 % of control; (dose: 75.0 mg/kg/injection, schedule: Q01DX001 (ip), vehicle: Klucel (hydroxypropylcellulose) (HPC)) 92 % of control; (dose: 150.0 mg/kg/injection, schedule: Q01DX001 (ip), vehicle: Klucel (hydroxypropylcellulose) (HPC)) 105 % of control.

For `CC[n+]1cccc(C#N)c1`, the T/C is, setting by setting: (dose: 75.0 mg/kg/injection, schedule: Q01DX001 (ip), vehicle: saline) 98 % of control; (dose: 75.0 mg/kg/injection, schedule: Q04DX003 (ip), vehicle: saline) 93 % of control; (dose: 150.0 mg/kg/injection, schedule: Q01DX001 (ip), vehicle: saline) 103 % of control; (dose: 150.0 mg/kg/injection, schedule: Q04DX003 (ip), vehicle: saline) 98 % of control; under setting [8], 101 % of control.

As to `COc1ccc(CC(=O)NNC(=O)C2(C(C)C)OC3(O)CCCCCN3C2=O)cc1OC` (stereo unspecified), the T/C is 101 % of control (dose: 12.5 mg/kg/injection, schedule: Q04DX003 (ip), vehicle: saline with Tween-80); 92 % of control (dose: 25.0 mg/kg/injection, schedule: Q04DX003 (ip), vehicle: saline with Tween-80); 101 % of control (dose: 50.0 mg/kg/injection, schedule: Q04DX003 (ip), vehicle: saline with Tween-80); 90 % of control under setting [9].

On to `c1ccc(CNCc2ccc(CNCc3ccccc3)cc2)cc1`, for which the T/C under setting [9] is 93 % of control; the T/C (dose: 200.0 mg/kg/injection, schedule: Q04DX003 (ip), vehicle: saline with Tween-80) was 97 % of control; the T/C (dose: 400.0 mg/kg/injection, schedule: Q04DX003 (ip), vehicle: saline with Tween-80) is 98 % of control.

On to `COc1cc(Br)c2c(c1OC)C(=O)CC2`, for which the T/C reads like this: under setting [2], 94 % of control; under setting [3], 98 % of control; under setting [4], 96 % of control; under setting [5], 96 % of control; under setting [6], 98 % of control; under setting [7], 91 % of control.

Take `COc1ccc(/C=C(\C#N)c2ccc(OC)cc2)cc1`: the T/C was 96 % of control under setting [2]; 98 % of control under setting [3]; 101 % of control under setting [4]; 91 % of control under setting [5]; 96 % of control under setting [6]; 93 % of control under setting [7].

As to `Cn1c(=O)c2c(nc(C3CC=CCC3)n2C)n(C)c1=O` (stereo unspecified), the T/C (dose: 50.0 mg/kg/injection, schedule: Q01DX001 (ip), vehicle: other) was 98 % of control.

`CCNC(=O)N(CC)N=O`: the T/C (dose: 6.25 mg/kg/injection, schedule: Q01DX001 (ip), vehicle: saline) is 97 % of control; the T/C (dose: 12.5 mg/kg/injection, schedule: Q01DX001 (ip), vehicle: saline) was 102 % of control; the T/C (dose: 25.0 mg/kg/injection, schedule: Q01DX001 (ip), vehicle: saline) is 100 % of control; the T/C under setting [10] is 97 % of control; the T/C under setting [11] was 110 % of control; the T/C under setting [12] was 113 % of control. Further, the T/C by setting is: under setting [8], 124 % of control; (dose: 500.0 mg/kg/injection, schedule: Q01DX001 (ip), vehicle: saline) 112 % of control.

With `Cc1c(N2CCCCC2)[nH]c2ccccc12`, the T/C reads like this: under setting [2], 87 % of control; under setting [3], 96 % of control; under setting [5], 95 % of control; under setting [7], 88 % of control.

`CCOC(=O)c1c(-c2ccccc2)cn2c1OC(C)CC2(C)C` (stereo unspecified): the T/C is, setting by setting: (dose: 100.0 mg/kg/injection, schedule: Q01DX001 (ip), vehicle: Klucel (hydroxypropylcellulose) (HPC)) 105 % of control; (dose: 200.0 mg/kg/injection, schedule: Q01DX001 (ip), vehicle: Klucel (hydroxypropylcellulose) (HPC)) 100 % of control; (dose: 400.0 mg/kg/injection, schedule: Q01DX001 (ip), vehicle: Klucel (hydroxypropylcellulose) (HPC)) 93 % of control.

In the case of `O=C(O)C1CCCCC1C(=O)NCc1ccccc1Cl` (stereo unspecified), the T/C is 100 % of control (dose: 100.0 mg/kg/injection, schedule: Q04DX002 (ip), vehicle: Klucel (hydroxypropylcellulose) (HPC)); 100 % of control (dose: 200.0 mg/kg/injection, schedule: Q04DX002 (ip), vehicle: Klucel (hydroxypropylcellulose) (HPC)); 96 % of control (dose: 400.0 mg/kg/injection, schedule: Q04DX002 (ip), vehicle: Klucel (hydroxypropylcellulose) (HPC)).

With `CCCCCCC(=O)N1CCOCC1`, the T/C by setting is: (dose: 25.0 mg/kg/injection, schedule: Q04DX002 (ip), vehicle: saline) 108 % of control; (dose: 50.0 mg/kg/injection, schedule: Q04DX002 (ip), vehicle: saline) 101 % of control; under setting [1], 93 % of control and 92 % of control.

Turning to `O=NN(CCCl)C(=O)NC1CCC(Cl)CC1` (stereo unspecified), the T/C (dose: 12.0 mg/kg/injection, schedule: Q01DX001 (ip), vehicle: Klucel (hydroxypropylcellulose) (HPC)) is 123 % of control; the T/C (dose: 21.0 mg/kg/injection, schedule: Q01DX001 (ip), vehicle: Klucel (hydroxypropylcellulose) (HPC)) is 217 % of control; the T/C (dose: 21.0 mg/kg/injection, schedule: Q01DX001 (ip), vehicle: carboxymethylcellulose (CMC)) is 182 % of control; the T/C (dose: 26.0 mg/kg/injection, schedule: Q01DX001 (ip), vehicle: Klucel (hydroxypropylcellulose) (HPC)) is 303 % of control; the T/C (dose: 34.0 mg/kg/injection, schedule: Q01DX001 (ip), vehicle: Klucel (hydroxypropylcellulose) (HPC)) is 387 % of control; the T/C (dose: 34.0 mg/kg/injection, schedule: Q01DX001 (ip), vehicle: carboxymethylcellulose (CMC)) is 346 % of control. In addition, the T/C is, setting by setting: (dose: 40.0 mg/kg/injection, schedule: Q01DX001 (ip), vehicle: Klucel (hydroxypropylcellulose) (HPC)) 291 % of control; (dose: 49.0 mg/kg/injection, schedule: Q01DX001 (ip), vehicle: Klucel (hydroxypropylcellulose) (HPC)) 460 % of control; (dose: 49.0 mg/kg/injection, schedule: Q01DX001 (ip), vehicle: carboxymethylcellulose (CMC)) 469 % of control; (dose: 60.0 mg/kg/injection, schedule: Q01DX001 (ip), vehicle: Klucel (hydroxypropylcellulose) (HPC)) 275 % of control; (dose: 74.0 mg/kg/injection, schedule: Q01DX001 (ip), vehicle: Klucel (hydroxypropylcellulose) (HPC)) 439 % of control; (dose: 74.0 mg/kg/injection, schedule: Q01DX001 (ip), vehicle: carboxymethylcellulose (CMC)) 469 % of control. Further, the T/C is 91 % of control (dose: 90.0 mg/kg/injection, schedule: Q01DX001 (ip), vehicle: Klucel (hydroxypropylcellulose) (HPC)); 218 % of control (dose: 110.0 mg/kg/injection, schedule: Q01DX001 (ip), vehicle: Klucel (hydroxypropylcellulose) (HPC)); 153 % of control (dose: 110.0 mg/kg/injection, schedule: Q01DX001 (ip), vehicle: carboxymethylcellulose (CMC)); 98 % of control (dose: 133.0 mg/kg/injection, schedule: Q01DX001 (ip), vehicle: Klucel (hydroxypropylcellulose) (HPC)).

In the case of `O=c1cc(/C=N\Nc2ccccc2)[nH]c(=O)[nH]1`, the T/C is 93 % of control under setting [10]; 96 % of control under setting [11]; 93 % of control under setting [12]; 96 % of control (dose: 400.0 mg/kg/injection, schedule: Q01DX001 (ip), vehicle: saline).
